Experimental data taken from ChEMBL document CHEMBL1127983, “The synthesis and evaluation of peptidyl aspartyl aldehydes as inhibitors of ice” (Bioorg Med Chem Lett, 1994).
pKi: −log10 of the molar value. Square brackets hold non-standard residues; d marks the D form. Peptide text beside a SMILES is read from it. βAla = NCCC(=O)O

molecular target: T1, Caspase-1 (Homo sapiens, UniProt P29466); experiment: Binding affinity towards IL-1 beta converting enzyme (ICE)
T1 sequence (P29466 whole entry): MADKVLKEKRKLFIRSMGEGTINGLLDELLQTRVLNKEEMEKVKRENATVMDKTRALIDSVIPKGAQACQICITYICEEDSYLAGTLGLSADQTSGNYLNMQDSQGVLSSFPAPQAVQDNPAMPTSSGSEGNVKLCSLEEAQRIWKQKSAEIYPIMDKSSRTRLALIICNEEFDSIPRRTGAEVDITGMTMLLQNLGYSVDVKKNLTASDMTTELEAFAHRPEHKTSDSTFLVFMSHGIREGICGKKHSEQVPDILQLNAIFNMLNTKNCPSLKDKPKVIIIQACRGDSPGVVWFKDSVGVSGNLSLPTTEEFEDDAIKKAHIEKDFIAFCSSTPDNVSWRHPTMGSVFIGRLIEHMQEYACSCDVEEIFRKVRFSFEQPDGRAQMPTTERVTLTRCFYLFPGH

| Structure (SMILES) | pKi |
| --- | --- |
| CC(=O)N[C@@H](C)C(=O)N[C@H](C=O)CC(=O)O (Ac-Ala-Asp-aldehyde) | < 4.70 |
| CC(=O)N[C@@H](Cc1cc(I)c(O)c(I)c1)C(=O)N[C@H](C(=O)N[C@@H](C)C(=O)N[C@H](C=O)CC(=O)O)C(C)C | 8.12 |
| CC(=O)N[C@@H](Cc1ccc(O)cc1)C(=O)N[C@H](C=O)CC(=O)O (Ac-Tyr-Asp-aldehyde) | < 4.70 |
| CC(=O)N[C@H](C(=O)N[C@@H](C)C(=O)N[C@H](C=O)CC(=O)O)C(C)C (Ac-Val-Ala-Asp-aldehyde) | 5.77 |
| CC(=O)N[C@@H](Cc1ccc(O)cc1)C(=O)N[C@H](C(=O)N[C@H](C=O)CC(=O)O)C(C)C (Ac-Tyr-Val-Asp-aldehyde) | 5.62 |
| CC(=O)N[C@@H](Cc1ccc(O)cc1)C(=O)N[C@H](C(=O)N[C@@H](C)C(=O)N(C)[C@H](C=O)CC(=O)O)C(C)C | < 4.70 |
| CC(=O)N(C)[C@@H](Cc1ccc(O)cc1)C(=O)N[C@H](C(=O)N[C@@H](C)C(=O)N[C@H](C=O)CC(=O)O)C(C)C | 6.92 |
| CC(=O)N[C@@H](Cc1ccc(O)cc1)C(=O)N[C@H](C(=O)N(C)[C@@H](C)C(=O)N[C@H](C=O)CC(=O)O)C(C)C | 7.23 |
| CC(=O)N[C@@H](Cc1ccccc1)C(=O)N[C@H](C(=O)N[C@@H](C)C(=O)N[C@H](C=O)CC(=O)O)C(C)C (Ac-FVAD-aldehyde) | 7.38 |
| CC(=O)N[C@@H](Cc1ccc(O)cc1)C(=O)N[C@H](C(=O)N[C@@H](C)C(=O)N[C@H](/C=N\NC(N)=O)CC(=O)O)C(C)C | 6.30 |
| CC(=O)N[C@@H](Cc1ccc(O)cc1)C(=O)N[C@H](C(=O)N[C@@H](C)C(=O)N[C@@H]1COC(=O)C1)C(C)C | < 4.70 |

Further lines, results first:

| pKi | Structure (SMILES) |
| --- | --- |
| < 4.70 | CC(=O)N[C@@H](Cc1ccc(O)cc1)C(=O)N[C@H](C(=O)N[C@@H](C)C(=O)N[C@@H]1CNC(=O)C1)C(C)C |
| 5.68 | CC(=O)N[C@@H](Cc1ccc(O)cc1)C(=O)N[C@@H](C)C(=O)N[C@H](C=O)CC(=O)O (Ac-Tyr-Ala-Asp-aldehyde) |
| 4.30 | CC(=O)N[C@@H](Cc1ccc(O)cc1)C(=O)N(C)[C@H](C(=O)N[C@@H](C)C(=O)N[C@H](C=O)CC(=O)O)C(C)C |
| 8.22 | CC(=O)N[C@@H](Cc1ccc(O)cc1)C(=O)N[C@H](C(=O)N[C@@H](C)C(=O)N[C@H](C=O)CC(=O)O)C(C)C |
| < 4.70 | CC(=O)N[C@@H](Cc1ccc(O)cc1)C(=O)N[C@H](C(=O)N[C@@H](C)C(=O)NCCC(=O)O)C(C)C (Ac-YVA[βAla]-OH) |
| 7.55 | CC(C)[C@H](NC(=O)CC(Cl)Cl)C(=O)N[C@@H](C)C(=O)N[C@H](C=O)CC(=O)O |
